Data: patent US20070021359A1, “Addition salts of azithromycin and citric acid and process for preparing them” (priority 2003, published 2007)

Columns and labels:
[1] = cited from earlier work
[2] = cited from earlier work; remark: listed apart in the source
[3] = solubility in water / aqueous solutions; assay type: physicochemical; details: aqueous solution, ambient temperature
From the text: The azithromycin citrate of the invention provides aqueous solutions up to 65% (w/w) at ambient temperature, with a pH between 6.8 and 7.5. The new addition salts of azithromycin and citric acid of the invention are particularly useful in the preparation of aqueous or water-alcohol solutions of azitromycin containing up to 65% of the salt, providing a pH between 4 and 8, stable and not suffering from chemical degradation of azithromycin.

Compound	solubility in water [1]	stability in aqueous acid medium [2]	concentration of aqueous solutions provided [3]
CC[C@H]1OC(=O)[C@H](C)[C@@H](O[C@H]2C[C@@](C)(OC)[C@@H](O)[C@H](C)O2)[C@H](C)[C@@H](O[C@@H]2O[C@H](C)C[C@H](N(C)C)[C@H]2O)[C@](C)(O)C[C@@H](C)CN(C)[C@H](C)[C@@H](O)[C@]1(C)O [azithromycin, 9-deoxo-9a-aza-9a-methyl-9a-homoerythromycin A]	very insoluble	not stable	–
azithromycin citrate	–	–	up to 65 % (w/w)
